Test results from ChEMBL document CHEMBL1135178, “Photo-oxygenation of geraniol: synthesis of a novel series of hydroxy-functionalized anti-malarial 1,2,4-trioxanes” (2002).
Converted amounts (≈) assume the structure as drawn.

How the values were obtained:
[1] = test system: Mus musculus; assay: (§1) The compound was tested in vivo antimalarial response against multidrug-resistant Plasmodium yoelii in Swiss mice (Mus musculus) at a dose of 48 (mg/kg/day) after 4 day; format: functional
[2] = test system: Mus musculus; assay: The compound was tested in vivo antimalarial response against multidrug-resistant Plasmodium yoelii in Swiss mice (Mus musculus) at a dose of 48 (mg/kg/day) after 7 days; format: functional
[3] = test system: Mus musculus; assay: The compound was tested in vivo antimalarial response against multidrug-resistant Plasmodium yoelii in Swiss mice (Mus musculus) at a dose of 48 (mg/kg/day) after 10 days; format: functional
[4] = test system: Mus musculus; assay: Total number of mice protected out of the 5 tested at a dose of 48 mg/kg/day (Observation till day 10 post-infection); format: functional
[5] = test system: Plasmodium falciparum; assay: Antimalarial activity against Plasmodium falciparum NF54; format: functional
[6] = test system: Mus musculus; assay: as §1; format: functional, organism-based
[7] = test system: Mus musculus; assay: The compound was tested in vivo antimalarial response against multidrug-resistant Plasmodium yoelii in Swiss mice (Mus musculus) at a dose of 96 (mg/kg/day) after 4 day; format: functional, organism-based
[8] = test system: Mus musculus; assay: Total number of mice protected out of the 5 tested at a dose of 96 mg/kg/day (Observation till day 10 post-infection); format: functional
[9] = test system: Mus musculus; assay: The compound was tested in vivo antimalarial response against multidrug-resistant Plasmodium yoelii in Swiss mice (Mus musculus) at a dose of 96 (mg/kg/day) after 10 days; format: functional, organism-based
[10] = test system: Mus musculus; assay: The compound was tested in vivo antimalarial response against multidrug-resistant Plasmodium yoelii in Swiss mice (Mus musculus) at a dose of 96 (mg/kg/day) after 7 days; format: functional, organism-based
[11] = test system: Mus musculus; assay: The compound was tested in vivo antimalarial response against multidrug-resistant Plasmodium yoelii in Swiss mice (Mus musculus) at a dose of 24 (mg/kg/day) after 4 days; format: functional
[12] = test system: Mus musculus; assay: The compound was tested in vivo antimalarial response against multidrug-resistant Plasmodium yoelii in Swiss mice (Mus musculus) at a dose of 24 mg/kg/day after 10 days; format: functional
[13] = test system: Mus musculus; assay: The compound was tested in vivo antimalarial response against multidrug-resistant Plasmodium yoelii in Swiss mice (Mus musculus) at a dose of 24 (mg/kg/day) after 7 days; format: functional
[14] = test system: Mus musculus; assay: Total number of mice protected out of the 5 tested at a dose of 24 mg/kg/day (Observation till day 10 post-infection); format: functional

Question: How did the Parasitemia [1] turn out when `CCN(CC)CCCC(C)Nc1ccnc2cc(Cl)ccc12` (stereo unspecified) [CHLOROQUINE] was run?
Answer: Its Parasitemia is 1.53%.

Question: What about the Parasitemia [2] of the same molecule?
Answer: The Parasitemia was 17.6%.

Question: What about the Parasitemia [3] of the same molecule?
Answer: The Parasitemia was 32.74%.

Question: What about the “No. of mice protected” value [4] of the same molecule?
Answer: Its value is 3.

Question: What about the MIC [5] of the same molecule?
Answer: Its MIC is 0.04 µg/mL (≈ 0.125 µM).

Question: With `C=C(CCCO)C1COC2(CCCC2)OO1` (stereo unspecified) as the molecule, how does the MIC [5] read?
Answer: Its MIC is 0.25 µg/mL (≈ 1.1 µM).

Question: For `C=C(CCCO)C1COC2(CCCCC2)OO1` (stereo unspecified), which MIC [5] is on record?
Answer: Its MIC is 1 µg/mL (≈ 4.13 µM).

Question: What does the source list for `C=C(C)C(O)CCC(=C)C1COC2(OO1)C1CC3CC(C1)CC2C3` (stereo unspecified)?
Answer: Parasitemia [6]: Nil; Parasitemia [7]: Nil; No. of mice protected [8]: 5; Parasitemia [2]: 2.04%; Parasitemia [9]: Nil; Parasitemia [10]: Nil; Parasitemia [3]: 10.5%; Parasitemia [11]: 2.42%; No. of mice protected [4]: 4; Parasitemia [12]: 28.4%; Parasitemia [13]: 13.38%; MIC [5]: 0.031 µg/mL (≈ 0.0927 µM); No. of mice protected [14]: 2

Question: With `C=C(C)C(O)CCC(=C)C1COC(C)(C)OO1` (stereo unspecified) as the molecule, how does the MIC [5] read?
Answer: Its MIC is 0.5 µg/mL (≈ 2.06 µM).

Question: How did the MIC [5] turn out when `C=C(C)C(O)CCC(=C)C1COC2(CCCCC2)OO1` (stereo unspecified) was run?
Answer: The MIC was 0.125 µg/mL (≈ 0.443 µM).

Question: Which MIC [5] does the source give for `C=C(CCCO)C1COC2(OO1)C1CC3CC(C1)CC2C3` (stereo unspecified) here?
Answer: The MIC was 0.125 µg/mL (≈ 0.425 µM).

Question: `C[C@@H]1CC[C@H]2[C@@H](C)C(=O)O[C@@H]3O[C@@]4(C)CC[C@@H]1[C@]32OO4` [ARTEMISININ] was tested. Which MIC [5] did it give?
Answer: Its MIC is 0.031 µg/mL (≈ 0.11 µM).

Question: How did the MIC [5] turn out when `C=C(C)C(O)CCC(=C)C1COC2(CCCC2)OO1` (stereo unspecified) was run?
Answer: The MIC was 0.125 µg/mL (≈ 0.466 µM).

Question: For `C=C(CCCO)C1COC(C)(C)OO1` (stereo unspecified), which MIC [5] is on record?
Answer: Its MIC is 1 µg/mL (≈ 4.94 µM).
